≈ marks a conversion by molar mass, not a printed value.
Columns and labels:
[1] = system: Plasmodium falciparum; experiment: Antiplasmodial activity against asexual blood-stage Plasmodium falciparum Tm90-C2B using 2% haematocrit and 0.2% parasitemia assessed as reduction in fluorescence measured after 72 hrs by Malaria SYBR Green I-based Fluorescence (MSF) assay; format: functional, organism-based
[2] = system: Plasmodium falciparum; experiment: microbe, parasite or virus in culture; conditions: D6, 72 h
Description: Antiplasmodial activity against asexual blood-stage Plasmodium falciparum D6 using 2% haematocrit and 0.2% parasitemia assessed as reduction in fluorescence measured after 72 hrs by Malaria SYBR Green I-based Fluorescence (MSF) assay

[3] = system: Plasmodium falciparum; experiment: microbe, parasite or virus in culture; conditions: Dd2, 72 h
Description: Antiplasmodial activity against asexual blood-stage Plasmodium falciparum Dd2 using 2% haematocrit and 0.2% parasitemia assessed as reduction in fluorescence measured after 72 hrs by Malaria SYBR Green I-based Fluorescence (MSF) assay

[4] = system: HepG2; experiment: Cytotoxicity against human HepG2 cells assessed as cell viability measured after 48 hrs by MTT assay; format: toxicity, cell-based; conditions: hepg2
[5] = Metabolic stability in human liver microsomes assessed as half life measured up to 60 mins by LC/MS analysis; format: ADME, Microsome
[6] = Metabolic stability in mouse liver microsomes assessed as half life measured up to 60 mins by LC/MS analysis; format: ADME, Microsome
[7] = system: Plasmodium yoelii; experiment: Antimalarial activity against erythrocytic Plasmodium yoelii MRA-428 infected in CF1 mouse assessed as reduction in parasitemia at 10 mg/kg, po once daily for 4 days measured on day 5; format: functional; parameters: scale not given: the % may be the effect or the level left; conditions: time 4 day
[8] = Solubility of the compound in potassium phosphate buffer at pH 7.4 by UV-vis spectroscopy; conditions: buffer
[9] = system: MDR1 (human); experiment: Apparent permeability across apical to basolateral side in MDCK transfected with human MDR1 cells incubated for 1 hr by LC-MS analysis; conditions: dog, MDCK-MDR1
[10] = system: MDR1 (human); experiment: Apparent permeability across basolateral to apical side in MDCK transfected with human MDR1 cells incubated for 1 hr by LC-MS analysis; conditions: dog, MDCK-MDR1
[11] = in vitro; conditions: human, liver microsomes
[12] = in vitro; conditions: mouse, liver microsomes

SMILES | IC50 [1] [nM] | IC50 [2] [nM] | IC50 [3] [nM] | other results
CCC1=C(CC)/C(=C/NC2CCCCCCC2)N=C1c1ccc(-c2ccc(OC)cc2)[nH]1 | 25.4 | 14.5 | 22.5 | IC50 [4]: 4.96 µM; half-life [5]: > 60 min; half-life [6]: > 60 min; Activity [7]: 0%; solubility [8]: < 3.125 µM; Papp A→B at 1 h [9]: 0.054 ×10⁻⁶ cm/s; Papp B→A at 1 h [10]: 0.012 ×10⁻⁶ cm/s
COc1ccc(C2=C(c3ccc(OC)cc3)/C(=C/NC3CCCCCC3)N=C2c2ccc[nH]2)cc1 | 131 | – | 330 | –
CCC1=C(CC)/C(=C/NC2CCCCC2)N=C1c1ccccc1OC | > 2500 | > 2500 | > 2500 | –
C(/NC12C[C@H]3C[C@@H](C1)C[C@@H](C2)C3)=C1/N=C(c2ccc[nH]2)C(c2ccccc2)=C1c1ccccc1 | 351 | 412 | 359 | –
CCC1=C(CC)/C(=C/NC2CCCCC2)N=C1c1ccccc1F | > 2500 | > 2500 | > 2500 | –
CCC1=C(CC)/C(=C/NC2CCCCCCC2)N=C1c1ccc(C#N)[nH]1 | > 2500 | > 2500 | > 2500 | –
CCC1=C(CC)/C(=C/NC2CCCCC2)N=C1c1ccccc1OCCN(CC)CC | 1060 | > 2500 | 757 | –
CCC1=C(CC)/C(=C/NC2CCCCCC2)N=C1c1ccn[nH]1 | > 2500 | > 2500 | > 2500 | –
C(/NC1CCCCCC1)=C1/N=C(c2ccc[nH]2)C(c2ccccc2)=C1c1ccccc1 | 2110 | – | 1000 | –
CCC1=C(CC)/C(=C/NC23C[C@H]4C[C@@H](C2)C[C@@H](C3)C4)N=C1c1ccccc1F | > 2500 | > 2500 | > 2500 | –
CCC1=C(CC)/C(=C/NC2CCCCCC2)N=C1c1ccc(C#N)[nH]1 | > 2500 | > 2500 | > 2500 | –
CCC1=C(CC)/C(=C/NC2CCCCC2)N=C1c1ccccc1OCCN(C)C | > 2500 | > 2500 | 1380 | –
C(/NC1CCCCC1)=C1/N=C(c2ccc[nH]2)C(c2ccccc2)=C1c1ccccc1 | 1700 | 1520 | 1280 | –
C(/NC1CCCCCC1)=C1/N=C(c2ccc[nH]2)C(Oc2ccccc2)=C1Oc1ccccc1 | > 2500 | > 2500 | > 2500 | –
COc1ccc(C2=C(c3ccc(OC)cc3)/C(=C/NC3CCCCC3)N=C2c2ccc[nH]2)cc1 | 187 | – | 343 | –
CCC1=C(CC)/C(=C/NC2CCCCC2)N=C1c1ccc(C#N)[nH]1 | > 2500 | 1600 | > 2500 | –
COc1ccc(OC2=C(Oc3ccc(OC)cc3)/C(=C/NC3CCCCC3)N=C2c2ccc[nH]2)cc1 | 1650 | 1220 | 1470 | –
C(/NC12C[C@H]3C[C@@H](C1)C[C@@H](C2)C3)=C1/N=C(c2ccc[nH]2)C(Oc2ccccc2)=C1Oc1ccccc1 | 456 | 617 | 787 | –
CCC1=C(CC)/C(=C/NC2CCCCCCC2)N=C1c1ccc(Cc2ccc(OC)cc2)[nH]1 | 13 | – | 10.8 | IC50 [4]: 4.31 µM; half-life [5]: > 60 min; half-life [6]: > 60 min; Activity [7]: 0%; solubility [8]: < 3.125 µM; Papp A→B at 1 h [9]: 0.074 ×10⁻⁶ cm/s; Papp B→A at 1 h [10]: 0.12 ×10⁻⁶ cm/s
CCc1c(CNC23CC4CC(CC(C4)C2)C3)[nH]c(-c2ccc[nH]2)c1CC | 912 | – | 753 | –
CCC1=C(CC)/C(=C/NC2CCCCC2)N=C1c1cc2ccccc2[nH]1 | > 2500 | > 2500 | > 2500 | –
CCC1=C(CC)/C(=C/NC2CCCCCC2)N=C1c1ccc(-c2ccccc2)[nH]1 | 19.8 | – | 30.2 | IC50 [4]: 5.64 µM; half-life [5]: 22.5 min; half-life [6]: 12.1 min; Activity [7]: 10.5%; solubility [8]: 13.1 µM (≈ 5.08 µg/mL); Papp B→A at 1 h [10]: 0.002 ×10⁻⁶ cm/s; microsomal CLint at 1 h [11]: 61.5 µL/min/mg; microsomal CLint at 1 h [12]: 115 µL/min/mg
COc1ccc(OC2=C(Oc3ccc(OC)cc3)/C(=C/NC3CCCCCC3)N=C2c2ccc[nH]2)cc1 | 2170 | 1490 | 1740 | –
CCC1=C(CC)/C(=C/NC2CCCCCCC2)N=C1c1ccc(Cl)[nH]1 | 101 | 186 | 99.1 | IC50 [4]: 12.3 µM; half-life [5]: > 60 min; half-life [6]: > 60 min; solubility [8]: 5.37 µM (≈ 1.93 µg/mL); Papp A→B at 1 h [9]: 0.28 ×10⁻⁶ cm/s; Papp B→A at 1 h [10]: 0.04 ×10⁻⁶ cm/s; microsomal CLint at 1 h [11]: 10.1 µL/min/mg; microsomal CLint at 1 h [12]: 12.4 µL/min/mg
CCC1=C(CC)/C(=C/NC23C[C@H]4C[C@@H](C2)C[C@@H](C3)C4)N=C1c1ccc(C#N)[nH]1 | 818 | 397 | > 2500 | –
C(/NC1CCCCC1)=C1/N=C(c2ccc[nH]2)C(Oc2ccccc2)=C1Oc1ccccc1 | > 2500 | > 2500 | > 2500 | –

Continued, in another order:

IC50 [1] [nM] | IC50 [2] [nM] | IC50 [3] [nM] | SMILES | other results
> 2500 | > 2500 | > 2500 | CCC1=C(CC)/C(=C/NC23C[C@H]4C[C@@H](C2)C[C@@H](C3)C4)N=C1c1ccn[nH]1 | –
1400 | 2070 | 774 | CCC1=C(CC)/C(=C/NC23C[C@H]4C[C@@H](C2)C[C@@H](C3)C4)N=C1c1ccccc1OCCN(CC)CC | –
> 2500 | > 2500 | > 2500 | CCc1c(C(=O)NC2CCCCC2)[nH]c(-c2ccc(C)[nH]2)c1CC | –
2290 | 1080 | > 2500 | CCC1=C(CC)/C(=C/NC2CCCCC2)N=C1c1cc2cc(OC)ccc2[nH]1 | –
> 2500 | > 2500 | > 2500 | CCc1c(C(=O)NC2CCCCC2)[nH]c(-c2ccc[nH]2)c1CC | –
> 2500 | > 2500 | > 2500 | CCC1=C(CC)/C(=C/NC23C[C@H]4C[C@@H](C2)C[C@@H](C3)C4)N=C1c1ccccc1OC | –
> 2500 | > 2500 | > 2500 | CCC1=C(CC)/C(=C/NC2CCCCC2)N=C1c1ccn[nH]1 | –
184 | 228 | 113 | COc1ccc(OC2=C(Oc3ccc(OC)cc3)/C(=C/NC34C[C@H]5C[C@@H](C3)C[C@@H](C4)C5)N=C2c2ccc[nH]2)cc1 | –
> 2500 | > 2500 | > 2500 | CCc1ccc(-c2[nH]c(C(=O)NC3CCCCC3)c(CC)c2CC)[nH]1 | –
1730 | > 2500 | 2440 | CCC1=C(CC)/C(=C/NC23C[C@H]4C[C@@H](C2)C[C@@H](C3)C4)N=C1c1ccccc1OCCN(C)C | –
> 2500 | > 2500 | > 2500 | CCC1=C(CC)/C(=C/NC2CCCCCCC2)N=C1c1ccn[nH]1 | –
> 2500 | > 2500 | > 2500 | CCc1ccc(-c2[nH]c(C(=O)NC34C[C@H]5C[C@@H](C3)C[C@@H](C4)C5)c(CC)c2CC)[nH]1 | –
> 2500 | > 2500 | > 2500 | CCC1=C(CC)/C(=C/NC2CCCCC2)N=C1c1ccccc1O | –
> 2500 | > 2500 | > 2500 | CCc1c(C(=O)NC23C[C@H]4C[C@@H](C2)C[C@@H](C3)C4)[nH]c(-c2ccc[nH]2)c1CC | –
